Marks after values point to notes of the source that are not given here.
Columns and labels:
[1] = test system: Caspase activity; experiment: Caspase inhibition assay (time-dependent, Ac-DEVD-afc substrate) in cultured cells; type: cell-based; conditions: Saos-2, 50 µM drug-eq., apoptosis induced by doxycyclin 2 µM, vs non-treated cells
Procedure: The time-dependent inhibition of caspase induced by the compounds described in this invention was analyzed. Cell lines were grown in the presence or absence of compounds (50 µM) at different times. Caspase activity was assayed using Saos-2 or U937 cultured cell lines and Ac-DEVD-afc (N-acetyl-Asp-Glu-Val-Asp-afc(7-amino-4-trifluoromethyl coumarin)) as substrate (20 µM). For Saos-2 cell line, apoptosis induction was carried out by the addition of doxycyclin 2 µM; in the case of U937, apoptosis was induced by doxorubicin 0.25 µM. Caspase activity was continuously monitored by the liberation of fluorescent afc using a Cytofluor 4000 fluorimeter (excitation 400 nm; emission 508 nm) for 2 hour. The effect of the compounds on the caspase activity was expressed as the percentage of inhibition in the fluorescence signal of treated cells vs the non-treated cells (control). As control is shown the activity of the previously described conjugate with diglycil linker (named as diglycil)

[2] = target: T1, Cathepsin B (Homo sapiens, UniProt P07858); experiment: Degradation on incubation with Cathepsin B: Mw loss and drug release profile from PGA-conjugate; type: in vitro ADME; conditions: Cathepsin B (5 U), pH 6 buffer, 37°C; for 50% drug release t: determined by HPLC; for 50% Mw Loss t: determined by Size Exclusion Chromatography (SEC)
Procedure: Aqueous solutions of I.1 (1 mg/mL) were prepared, and an aliquot (100 µL) was added to a polypropylene tube and made up to 1 mL with water. The pH of the samples was adjusted to 8 with ammonium formate buffer (100 µL, 1 M, pH 8.5), and then CHCl3 (5 mL) was added. Samples were then thoroughly extracted by vortexing (3 x 10 sec). The […] layer was carefully removed and the solvent was evaporated under N2. The dry residue was dissolved in 200 µL of HPLC grade acetonitrile. In parallel the same procedure was carried out for the parent compound II.1 (using 200µL of a 1 mg/mL stock aqueous solution). Addition of 1 mL of acetonitrile to redissolve the product gave a 200 µg/mL stock from which a range of concentrations was prepared (2 to 100 µg/mL). The free amount of drug in the conjugates was determined by HPLC using a Lichrospher® C18 (150 x 3.9 mm) column. Flow rate 1 mL/min using an acetonitrile gradient in aqueous 0.1 % TFA (from 10 to 90% of acetonitrile in 25 min). The retention time was tr = 22.5 min for II.1 (λ = 220 nm) and tr = 22.0 for II.2.
Cathepsin B (5 U) was added last to a solution of 3 mg PGA or PGA-conjugate I in 1 mL of a pH 6 buffer composed by 20 mM sodium acetate, 2 mM EDTA and 5 mM DTT. Incubation was carried out at 37°C. Aliquots (150 µL) were taken at times up to 72 h, immediately frozen in liquid nitrogen, and stored frozen in the dark until assayed by HPLC (analysis of 100 µL aliquots after extraction procedure) and/or GPC (direct analysis of 50 µL aliquots). In control experiments polymers were incubated in buffer alone (without addition of cathepsin B) to assess non-enzymatic hydrolytic cleavage. In addition, free drug (0.75 mg/mL) was also incubated under same conditions and later used as the reference control. HPLC Evaluation of Released Drug (VIIIa, I.1 or I.2) The extraction method described above to determine free drug content of the conjugate samples was also used here. Mass analysis of the released compounds was carried out by MALDI TOF TOF. GPC Evaluation of Polymer Mw loss. The 50 µL aliquots were diluted up to 200 µL with buffer (PBS) and the Mw determined by GPC using PEG standards. Generally degradation profiles for biomedical polymers are obtained under constant sink conditions and the results correlated with mass loss of the polymer. Since PGA polymers are water soluble, the relative peak areas used in the GPC derived molecular weight calculations provided a suitable alternative to indicate the relative amount of the polymer that remained at each timepoint. As the polymer degraded there was a notable loss of I (PGA-conjugate) molecular weight. Therefore, the loss with time of the area under the curve (AUC) for I and PGA (XII) was considered to evaluate the rate of backbone degradation. […]

[3] = target: T1, Cathepsin B; conditions: reference value from Vicent MJ and Pérez-Payá, J. Med. Chem. 2006, 49, 3763-3765, cited from earlier work

Substance	% Caspase Inhibition ([1]; Time 24 h)	% Caspase Inhibition ([1]; Time 48 h)	% Caspase Inhibition ([1]; Time 72 h)	50% drug release t [2]	50% Mw Loss t [2]	50% drug release t (h) ([3]; determined by HPLC)	50% Mw Loss t (h) ([3]; determined by SEC)
Poly-L-glutamic acid [2-(2-Amino-3-phenylpropionylamino)-N-{[({carbamoylmethyl-[2-(2,4-dichlorophenyl)ethyl]carbamoyl}methyl)-(3,3-diphenylpropyl)carbamoyl]-methyl}-N-[2-(2,4-dichlorophenyl)ethyl]-3-methylbutyramide] conjugate [I.1]	23%	65%	100%	0.7 h	5 h		
Poly-L-glutamic acid [2-Amino-pentanoic acid (1-{{[({carbamoyl[2-(2,4-chlorophenyl)ethyl]carbamoyl}methyl)-(3,3-diphenylpropyl)carbamoyl]methyl}-[2-(2,4-dichlorophenyl)ethyl]carbamoyl}-2-methylpropyl)amide] conjugate [diglycil, reference compound]	67%	72%	100%			30^c h	60^c h
Poly-L-glutamic acid [2-Amino-4-methylpentanoic acid (1-{{[({carbamoylmethyl-[2-(2,4-dichlorophenyl)ethyl]carbamoyl}methyl)-(3,3-diphenylpropyl)carbamoyl]methyl}-[2-(2,4-dichlorophenyl)ethyl]carbamoyl}-2-methylpropyl)amide] conjugate [I.2]	65%	100%	100%	20 h	30 h		
